Data reported in publication doi:10.1101/2025.09.20.677545v1, “Parallel Evolution of a Drimenol Biosynthetic Gene Cluster Unique to Marine Bacteria” (biorxiv, 2025).

Key:
Type in all cases: biochemical
Sc terpene synthase β = target: T1, Sc terpene synthase β (Sorangium cellulosum, UniProt Z9XJ57G830); experiment: GC-MS of product after alkaline phosphatase (BAP) treatment; settings: […] FPP, […] enzyme, […] Tris-HCl pH […] MgCl2 (Mg2+ not required), […] °C; cyclization to a diphosphate, product seen only after BAP
T1 construct: codon-optimized, N-terminal His8 tag kept, pET28b(+), E. coli BL21 Star (DE3), TALON; single β domain with DxDVT134-138 motif
T1 sequence (Z9XJ57G830 1-342): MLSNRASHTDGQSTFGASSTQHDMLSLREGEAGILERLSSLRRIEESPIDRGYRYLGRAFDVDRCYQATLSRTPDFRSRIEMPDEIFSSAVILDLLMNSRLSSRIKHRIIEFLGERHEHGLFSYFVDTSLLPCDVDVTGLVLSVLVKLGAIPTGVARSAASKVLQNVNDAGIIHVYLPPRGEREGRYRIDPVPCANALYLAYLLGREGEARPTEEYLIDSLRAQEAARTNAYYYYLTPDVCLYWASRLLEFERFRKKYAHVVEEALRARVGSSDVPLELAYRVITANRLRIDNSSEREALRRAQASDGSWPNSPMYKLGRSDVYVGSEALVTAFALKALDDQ

FeFPPS = target: T2, FeFPPS (Flavivirga eckloniae, UniProt A0A2K9PVX7); experiment: GC-MS of farnesol after alkaline phosphatase (BAP) treatment; settings: 100 μM GPP with 100 μM IPP; otherwise same
T2 construct: gene C1H87_21960; codon-optimized, N-terminal His8 tag kept, pET28b(+), E. coli BL21 Star (DE3), TALON
T2 sequence (A0A2K9PVX7 1-289): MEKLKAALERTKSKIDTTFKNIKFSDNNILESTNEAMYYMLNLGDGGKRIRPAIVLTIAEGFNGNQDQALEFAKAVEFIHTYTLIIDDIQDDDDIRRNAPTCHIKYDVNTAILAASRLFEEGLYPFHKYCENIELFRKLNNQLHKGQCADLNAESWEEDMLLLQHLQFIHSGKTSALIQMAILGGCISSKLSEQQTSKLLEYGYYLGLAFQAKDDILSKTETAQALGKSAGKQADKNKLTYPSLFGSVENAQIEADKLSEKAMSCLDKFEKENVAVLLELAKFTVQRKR

AsFPPS = target: T3, AsFPPS (Aquimarina spongiae, UniProt A0A1M6CXH4); experiment: as above; settings: 100 μM GPP with 100 μM IPP; otherwise same
T3 construct: gene SAMN04488508_102321; codon-optimized, N-terminal His8 tag kept, pET28b(+), E. coli BL21 Star (DE3), TALON
T3 sequence (A0A1M6CXH4 1-289): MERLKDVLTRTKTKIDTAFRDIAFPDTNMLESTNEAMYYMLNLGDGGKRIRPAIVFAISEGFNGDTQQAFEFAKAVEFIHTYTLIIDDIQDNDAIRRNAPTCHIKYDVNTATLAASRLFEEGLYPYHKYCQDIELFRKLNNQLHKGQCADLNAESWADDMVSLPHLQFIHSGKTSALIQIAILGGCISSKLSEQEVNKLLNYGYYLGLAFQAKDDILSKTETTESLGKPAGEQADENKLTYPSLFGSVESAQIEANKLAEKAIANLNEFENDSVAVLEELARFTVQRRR

| SMILES | GC-MS of product after alkaline phosphatase (BAP) treatment (Sc terpene synthase β) | GC-MS of farnesol after alkaline phosphatase (BAP) treatment (FeFPPS) | GC-MS of farnesol after alkaline phosphatase (BAP) treatment (AsFPPS) |
| --- | --- | --- | --- |
| CC(C)=CCC/C(C)=C/CC/C(C)=C/COP(=O)(O)OP(=O)(O)O [farnesyl pyrophosphate] | Sc terpene synthase β is monofunctional and performs only the cyclization step of FPP |  |  |
| CC(C)=CCC/C(C)=C/COP(=O)(O)OP(=O)(O)O [geranyl pyrophosphate] |  | dimethylallyl pyrophosphate (DMAPP) or geranyl pyrophosphate (GPP) as an allylic substrate | dimethylallyl pyrophosphate (DMAPP) or geranyl pyrophosphate (GPP) as an allylic substrate |
